One block for each molecule: values may come before it. Peptide text beside a SMILES is read from it. * marks the point of attachment. code Z = not defined here; CH2F = FC*
Tests used:
[1] = target: T1, human recombinant caspase-2 (Homo sapiens, UniProt P42575); assay: In vitro caspase-2 cleavage assay (Ac-VDVAD-AMC substrate); assay type: biochemical; design: key to Group (pattern of caspase-2 inhibition curve): group 1 referred to inhibitors that were relatively more active than VDVAD(SEQ ID NO:9)-based inhibitors against caspase-2 at lower doses, but with similar IC50 values; group 2 referred to VDVAD(SEQ ID NO:9)-based inhibitor with characteristic sigmoid dose-response; group 3 referred to pentapetidic-based inhibitors that were less active than VDVAD(SEQ ID NO:9)-based inhibitors against caspase-2 at lower doses and that exhibited higher IC50; conditions: for Group (pattern of caspase-2 inhibition curve) / IC50: Table 4; for IC50: 30 min pre-incubation, 2 h at 37° C.; for VDVAD-AMC cleavage by caspase-2: recombinant caspase-2, FIG. 16
T1 construct: purchased BIOMOL
T1 sequence (P42575 170-333 limits assumed): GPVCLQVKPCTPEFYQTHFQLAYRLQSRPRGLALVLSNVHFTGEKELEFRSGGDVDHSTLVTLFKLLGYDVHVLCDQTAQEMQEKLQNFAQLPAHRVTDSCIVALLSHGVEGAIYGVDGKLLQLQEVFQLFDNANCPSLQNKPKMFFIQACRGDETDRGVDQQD
T1 sequence (P42575 348-452 limits assumed): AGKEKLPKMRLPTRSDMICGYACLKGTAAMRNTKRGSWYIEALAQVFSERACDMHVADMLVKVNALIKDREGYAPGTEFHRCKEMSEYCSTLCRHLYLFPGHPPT
Procedure: Newly designed inhibitors (Ac-LDEAD(SEQ ID NO:7)-CHO, Ac-VDEAD(SEQ ID NO:1)-CHO . . . ) were compared to Ac-VDVAD(SEQ ID NO:9)-CHO in in vitro caspase-2 cleavage assay according to the following protocol (FIG. 8). Human recombinant caspases (25-50 U; QuantiZyme™ Assay System, BIOMOL, Plymouth, Pa., USA) were pre-incubated 30 min with inhibitors (0.005-2 μM) in final 100 μl final assay buffer (50 mM HEPES, pH 7.4, 100 mM NaCl, 0.1% CHAPS, 10 mM DTT, 1 mM EDTA, 10% glycerol) and then mixed with 200 μM of the fluorogenic caspase substrates (BIOMOL) Ac-VDVAD(SEQ ID NO:9)-AMC. An IC50 value corresponding to the concentration that could inhibit 50% of caspase activity was determined from the dose-response sigmoid curve. The cleavage of AMC-based substrates by human recombinant caspases 1-10 was measured after 2 h at 37° C. on a fluorescence microplate reader by monitoring emission at 510 nm upon excitation at 405 nm.

[2] = test system: neonatal ischemic brain injury; assay: Perinatal transient unilateral focal ischemia model in 7 day-old rat pups; assay type: in vivo; conditions: for reduction of infarct volume: 48 h
Procedure: Newborn Wistar rats (dam plus 9 pups per litter) were obtained from Janvier (Le Genest-St-Isle, France) when the pups were 3-4 days of age. The pups were housed with their dam under a 12:12 h light-dark cycle with food and water freely available. Animal experimentation was conducted according to the French and European Community guidelines for the care and use of experimental animals. Rat pups were anesthetized with an intraperitoneal injection of chloral hydrate (350 mg/kg). Ischemia was performed in 7 day-old rats (17-21 g), as previously described (Renolleau et al., 1998). Anesthetized rats were positioned on their back and a median incision was made in the neck to expose the left common carotid artery. Rats were then placed on the right side and an oblique skin incision was made between the ear and the eye. After excision of the temporal muscle, the cranial bone was removed from the frontal suture to a level below the zygomatic arch. […] After this procedure, a clip was placed to occlude the left common carotid artery. Rats were then placed in an incubator to avoid hypothermia. After 50 min, the clip was removed. Carotid blood flow restoration was verified with the aid of a microscope. Neck and cranial skin incisions were then closed. During the surgical procedure, body temperature was maintained at 37-38° C. Pups were transferred in an incubator (32° C.) until recovery then after to their dams.
Compound was administered intraperitoneally or intraveinously at 1 h after ischemia (corresponding to the reperfusion). Control animals received an equivalent volume of vehicle required to solubilize the pentapeptidic caspase inhibitor. Rats were killed 48 hours after reperfusion and brains were removed. The infarct lesion (pale zone) was visually scored by an observer blinded to the treatment of animals. Brains without a clear ischemic pale zone were observed under a magnifying glass.
Sections from anterior striatum to posterior hippocampus (corresponding to plates 9 to 27 in Paxinos' rat brain atlas) were selected, taken at equally spaced 0.5-mm intervals. The lesion areas were measured on cresyl violet-stained sections using an image analyzer, and the distances between respective coronal sections were used to calculate the infarct volume.

[3] = test system: global cerebral ischemia, hippocampus CA1 cell death; assay: Global cerebral ischemia by four-vessel occlusion (4VO) in young-adult rats; assay type: in vivo, rat; conditions: single i.c.v. 60 ng, 72 h post-ischemia
Procedure: Global cerebral ischemia was induced by four-vessel occlusion (4V0) according a Pulsinelli's derived method (Pulsinelli and Buchman, 1988) in young-adult rats (males Wistar aged of 10-12 weeks, 320 g+/−10 g; Janvier). The first day, head of anesthetised rats was positionned in stereotaxic ear bars and tilted down at approximatively 30° to the horizontal. After a midline incision at the level of cervical spine, both vertebral arteries were exposed under microscope and then coagulated by electocautery needle through the alar foramina at the level of first cervical vertebra. Both common carotides were then exposed 24 h later and clamped for 20-30 min (rats fell in the coma when electrocautherisation of both vertebral arteries have been well performed). Carotid arteries were then declamped to allow blood flow reperfusion. Vehicle and SEQ8 were administrated at the level of the left cerebral ventricule in the first fifth minutes of ischemia (carotides occlusion). Rats were let in their cage with waer et food ad libitum.
The selective loss of vulnerable cells and SEQ8's effects have been evaluated at 72 h. Rats were sacrificed and brain fixed by trans-cardiac perfusion with paraformaldehyde. Frontal brain slices (25 μm) were strained by Cresyl-Violet or co-stained by Hoechst 33342 and Fluorojade B to assess cell death in the hippocampus and in the cortex. […] Fluoro JadeB (green fluorescence) intake is possible only in cells which have permeable plasma membrane, thus more characteristic of dying cells. Hoechst 33342 (blue fluorescence) label nuclei all cells and allows to appreciate nuclear morphology changes during cell death. Cells are counted in three successive slices at such levels in the hippocampus (CA1) in the left brain hemisphere. […] Both Fluoro Jade B and Hoechst stained slices were observed under a Leica DMIRB inverted fluorescence microscope equipped with ×40 objective and LEICA IM1000/Qfluorobase software (BP 340-80 excitation filter combined with LP 425 emission filter for Hoechst; BP 480/40 excitation filter combined with BP 515-560 emission filter for Fluoro Jade B).

Molecule: z-LEHD-fmk ({code Z}-LEHD-CH2F; reading uncertain; also: printed as z-LEHD-fmk) [reference compound]
VDVAD-AMC cleavage by caspase-2 [1]: not

Molecule: 2-Quinolinylcarbonyl-L-Valinyl-L-Aspartyl (methyl ester)-L-Vanilyl-L-Alaninyl-L-Aspartyl (methyl ester) 2,6-difluorophenyl ester [SEQ8]
animals with partially or very marked reduced infarct ([2]; 1 mg/kg i.v. (FIG. 18) 1 h post-ischemia): ~50%
animals with partially or very marked reduced infarct ([2]; 0.1 or 1 mg/kg i.p. 1 h post-ischemia): more than 50%
reduction of infarct volume ([2]; single dose 1 mg/kg i.v. (FIG. 18) 1 h post-ischemia): at least 30%
reduction of infarct volume ([2]; single dose 0.1 or 1 mg/kg i.p. 1 h post-ischemia): 44-53%
VDVAD-AMC cleavage by caspase-2 [1]: blocked
Cresyl-violet staining intensity [3]: partially restored
abnormal nuclei in CA1 [3]: less abnormal nuclei
cells incorporating Fluorojade B in CA1 [3]: 10-20%

Molecule: Z-VDVAD(SEQ ID NO:9)-FMK ({code Z}-VDVAD-CH2F; reading uncertain) [reference compound]
VDVAD-AMC cleavage by caspase-2 [1]: blocked

The next lines start with the values.

Group (pattern of caspase-2 inhibition curve) [1]: 3
Molecule: CC(=O)N[C@@H](CC(C)C)C(=O)N[C@@H](CC(=O)O)C(=O)N[C@@H](CCC(=O)O)C(=O)NCC(=O)N[C@H](C=O)CC(=O)O [Compound 26, Ac-LDEGD(SEQ ID NO:2)-cho] (Ac-LDEGD-aldehyde)

Group (pattern of caspase-2 inhibition curve) [1]: 3
IC50 [1]: 300 ± 5 nM
Molecule: CC(=O)N[C@@H](CC(C)C)C(=O)N[C@@H](CC(=O)O)C(=O)N[C@@H](CCC(=O)O)C(=O)N[C@@H](CCCCN)C(=O)N[C@H](C=O)CC(=O)O [Compound 27, Ac-LDEKD(SEQ ID NO:5)-cho] (Ac-LDEKD-aldehyde)

Group (pattern of caspase-2 inhibition curve) [1]: 3
Molecule: CC(=O)N[C@H](C(=O)N[C@@H](CC(=O)O)C(=O)N[C@@H](CCC(=O)O)C(=O)N[C@@H](CO)C(=O)N[C@H](C=O)CC(=O)O)C(C)C [Compound 7, Ac-VDESD(SEQ ID NO:4)-cho] (Ac-VDESD-aldehyde)

Group (pattern of caspase-2 inhibition curve) [1]: 3
Molecule: CC(=O)N[C@@H](Cc1ccccc1)C(=O)N[C@@H](CC(=O)O)C(=O)N[C@@H](CCC(=O)O)C(=O)N[C@@H](CO)C(=O)N[C@H](C=O)CC(=O)O [Compound 3, Ac-FDESD(SEQ ID NO:6)-cho] (Ac-FDESD-aldehyde)

Group (pattern of caspase-2 inhibition curve) [1]: 2/3
IC50 [1]: 300 ± 20 nM
Molecule: CC(=O)N[C@@H](CC(C)C)C(=O)N[C@@H](CC(=O)O)C(=O)N[C@@H](CCC(=O)O)C(=O)N[C@@H](CO)C(=O)N[C@H](C=O)CC(=O)O [Compound 1, Ac-LDESD-cho, reference compound] (Ac-LDESD-aldehyde)
